Measured values from the supplement of paper PMC10307832.

Key:
Experiment in all cases: relative viability (nuclei count vs DMSO), 5 days (fraction); higher = more cells survive
Crizotinib + Trametinib = compound: C[C@@H](Oc1cc(-c2cnn(C3CCNCC3)c2)cnc1N)c1c(Cl)ccc(F)c1Cl [Crizotinib] + CC(=O)Nc1cccc(-n2c(=O)n(C3CC3)c(=O)c3c(Nc4ccc(I)cc4F)n(C)c(=O)c(C)c32)c1 [Trametinib] (partner 0.02 µM)
Procedure, shortened: (§1)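 Relative viability divides the nuclei count in treated wells by that in vehicle wells. Lung cancer cell lines were seeded in 1536-well plates, dosed by pin tool the next day, and fixed and stained after 5 days in one step with final 0.05% Triton X-100, 1% formaldehyde and 1 ug/ml Hoechst. Dosing was a single drug or a fixed anchor-drug dose plus five library-drug doses (not always all listed) in √10 steps, and values are medians of duplicate plates imaged at 4×.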

Olaparib + Trametinib = compound: O=C(c1cc(Cc2n[nH]c(=O)c3ccccc23)ccc1F)N1CCN(C(=O)C2CC2)CC1 [Olaparib] + CC(=O)Nc1cccc(-n2c(=O)n(C3CC3)c(=O)c3c(Nc4ccc(I)cc4F)n(C)c(=O)c(C)c32)c1 [Trametinib] (partner 0.02 µM)
Procedure, shortened: as §1

Olaparib + Palbociclib = compound: O=C(c1cc(Cc2n[nH]c(=O)c3ccccc23)ccc1F)N1CCN(C(=O)C2CC2)CC1 [Olaparib] + CC(=O)c1c(C)c2cnc(Nc3ccc(N4CCNCC4)cn3)nc2n(C2CCCC2)c1=O [Palbociclib] (partner 0.5 µM)
Procedure, shortened: as §1

Crizotinib + Alpelisib = compound: C[C@@H](Oc1cc(-c2cnn(C3CCNCC3)c2)cnc1N)c1c(Cl)ccc(F)c1Cl [Crizotinib] + Cc1nc(NC(=O)N2CCC[C@H]2C(N)=O)sc1-c1ccnc(C(C)(C)C(F)(F)F)c1 [Alpelisib] (partner 2 µM)
Procedure, shortened: as §1

Cell Line | relative viability (Crizotinib + Trametinib; first compound 0.01 µM) | relative viability (Crizotinib + Trametinib; first compound 0.03162 µM) | relative viability (Crizotinib + Trametinib; first compound 0.1 µM) | relative viability (Crizotinib + Trametinib; first compound 0.3162 µM) | relative viability (Crizotinib + Trametinib; first compound 1 µM) | relative viability (Olaparib + Trametinib; first compound 0.08 µM) | relative viability (Olaparib + Trametinib; first compound 0.253 µM) | relative viability (Olaparib + Trametinib; first compound 2.53 µM) | relative viability (Olaparib + Trametinib; first compound 8 µM) | relative viability (Olaparib + Palbociclib; first compound 0.08 µM) | relative viability (Olaparib + Palbociclib; first compound 0.253 µM) | relative viability (Olaparib + Palbociclib; first compound 2.53 µM) | relative viability (Olaparib + Palbociclib; first compound 8 µM) | relative viability (Crizotinib + Alpelisib; first compound 0.1 µM) | relative viability (Crizotinib + Alpelisib; first compound 0.3162 µM) | relative viability (Crizotinib + Alpelisib; first compound 1 µM) | relative viability (Crizotinib + Alpelisib; first compound 0.01 µM) | relative viability (Crizotinib + Alpelisib; first compound 0.03162 µM)
201T | 0.678 | 0.706 | 0.747 | 0.72 | 0.754 | 0.682 | 0.695 | 0.726 | 0.668 | 0.392 | 0.323 | 0.388 | 0.337 | 1.03 | 1.04 | 1.06 | – | –
A549 | – | – | – | – | – | – | – | – | – | – | – | – | – | 0.738 | 0.677 | 0.793 | 0.657 | 0.804
A-427 | 0.717 | 0.771 | 0.724 | – | 0.78 | 0.782 | 0.741 | 0.719 | 0.601 | 0.512 | 0.488 | 0.503 | 0.415 | 1.11 | – | 1.06 | 1.04 | 1.05
ABC-1 | – | – | – | – | – | – | – | – | – | 0.814 | – | 0.476 | 0.862 | 1.22 | 1.02 | 0.976 | 0.964 | 1.15
BEN | – | 0.982 | 0.948 | 1.15 | 1.17 | 1.11 | 0.991 | 1.07 | 1.1 | 0.531 | 0.454 | 0.451 | 0.51 | 0.864 | 1.26 | 1.12 | 0.925 | 0.992
CAL-12T | 0.268 | 0.413 | 0.32 | 0.393 | 0.374 | 0.351 | 0.292 | 0.417 | 0.305 | 0.0401 | 0.407 | 0.329 | 0.479 | 1.28 | 1.13 | 1.36 | 1.19 | 1.35
COR-L23 | 0.567 | 0.605 | 0.563 | 0.525 | 0.633 | 0.661 | 0.642 | 0.498 | 0.451 | 0.314 | 0.241 | 0.223 | 0.14 | 0.659 | 0.758 | 0.665 | 0.81 | 0.77
COR-L 105 | 0.426 | 0.463 | 0.413 | 0.41 | 0.43 | 0.472 | 0.446 | 0.425 | 0.428 | 0.401 | 0.409 | 0.404 | 0.398 | 0.972 | 0.88 | 0.828 | – | 0.872
Calu-6 | – | – | – | – | – | – | – | – | – | – | – | – | – | 0.988 | 0.925 | 1.06 | 0.944 | –
ChaGo-K-1 | 0.867 | 0.92 | 0.876 | 0.825 | 0.915 | 0.949 | 0.792 | 0.819 | 0.735 | 1.03 | 0.908 | 0.908 | 0.664 | – | – | – | – | –
EBC-1 | – | – | – | – | – | – | – | – | – | – | – | – | – | 0.543 | 0.202 | 0.269 | 0.746 | 0.823
EKVX | 0.342 | 0.367 | 0.347 | 0.298 | 0.374 | 0.425 | 0.427 | 0.313 | 0.362 | 0.38 | 0.364 | 0.371 | 0.41 | 0.792 | 0.905 | 0.864 | 0.849 | 0.967
EMC-BAC-2 | 0.865 | 0.803 | 0.914 | – | 0.893 | 0.971 | 0.844 | 0.932 | 0.806 | 0.518 | 0.512 | 0.517 | 0.472 | 0.715 | – | 0.781 | 0.76 | 0.818
EPLC-272H | 0.277 | 0.281 | 0.299 | – | 0.307 | 0.363 | 0.272 | 0.306 | 0.287 | 0.427 | 0.298 | 0.339 | 0.318 | 0.942 | 0.864 | 1.02 | 0.862 | 0.854
H3255 | 0.557 | 0.666 | 0.602 | 0.652 | 0.479 | 0.652 | 0.633 | 0.583 | 0.567 | 0.32 | 0.315 | 0.336 | 0.306 | 0.705 | 0.62 | 0.639 | 0.622 | 0.73
HARA | 0.646 | 0.525 | 0.958 | 0.976 | 0.564 | 0.882 | 0.66 | 0.732 | 0.632 | 0.216 | 0.268 | 0.271 | 0.276 | 0.863 | 0.881 | 0.767 | 0.859 | 0.836
HCC-15 | 0.396 | 0.346 | 0.38 | – | – | 0.422 | 0.387 | 0.39 | 0.353 | 0.785 | 0.659 | 0.714 | 0.722 | 0.906 | 0.848 | 0.956 | 0.846 | 0.938
HCC-44 | 0.933 | 1.04 | 1.03 | 1.15 | 1.04 | 1.04 | 0.949 | 1.01 | 0.996 | 0.998 | 0.884 | 0.943 | 0.969 | 0.853 | 0.744 | 0.815 | 0.808 | 0.801
